How the values were obtained:
Type in all cases: in vivo, mice
4T1 lung metastasis = test: Treatment of metastatic 4T1 model; settings: day 34
Description: 2×10^5 4 T1 cells were injected into the mammary fat pad. Seven days after injection, tumor-bearing mice were divided into 3 experimental groups: untreated, 3×cGAMP-S, and 1×cGAMP-S plus cGAMP-MPs (10m of cGAMP-S, 5 PLGA-1 microdevices containing 10 μg of cGAMP, and 5 PLGA-2 microdevices containing 10 μg of cGAMP). The primary tumor was surgically removed at day 18 to extend survival. Mice were euthanized at day 34. Lung tissues were stained with India ink and fixed in Fekete's solution. Metastatic foci on the lung were counted under a microscope. Unstained lung tissues were fixed in formalin and stained by H&E. Quantitation of metastatic tumor cells of H&E stained sections was performed using an Aperio ImageScope using tuned positive pixel count algorithm. Briefly, input hue value in the positive pixel count algorithm was tuned to positively select normal lung tissues in red to orange range, while the tumors were negatively selected in purple. Percentage area of tumor metastasis per total lung area was calculated by the number of negative counts (purple)/the number of total counts (purple, orange, and red)×100%. Three H&E sections per lung at different depths were analyzed and averaged to obtain the percentage of tumor over the lung for one mouse. Four or five mice were analyzed for each group.

B16F10 tumor recurrence = test: Treatment of surgically removed B16F10 tumor and re-challenge
Source text: 2×10^5 B16F10 cells were subcutaneously injected to the right rear flank of C57BL/6 female mice. Six days after tumor inoculation, B16F10 tumor-bearing mice were randomly divided into 4 experimental groups (n=8 for each group): untreated, 1×cGAMP-S plus EPs, 3×cGAMP-S, and 1×cGAMP-S plus cGAMP-MPs, respectively. ˜99% of tumor volume was surgically removed, leaving ˜1% residual tumor to mimic residual microtumors. Upon the removal of tumors, cGAMP-MPs (10m of cGAMP-S, 5 PLGA-1 microdevices containing 10 μg of cGAMP, and 5 PLGA-2 microdevices containing 10 μg of cGAMP) or 1×cGAMP-S plus EPs (10m of cGAMP-S, 5 each of empty PLGA-1 and PLGA-2 microdevices) in 50 μL MC solution were directly applied to the surgical bed through a micropipette. For 3×cGAMP-S treated group, 10 μg of cGAMP-S was applied to the surgical bed after surgery followed by intratumoral injections of 10 μg of cGAMP at days 4 and 8 post-surgery (FIG. 6A). The wound was closed by an autoclip wound clip system. Tumor size was measured with a digital caliper every other day starting at day 7 post tumor inoculation. For the re-challenge experiment, 2×10^5 B16F10 cells were subcutaneously injected to the left rear flank of treated mice with complete responses. Tumor size was measured every other day with a digital caliper.

IRF7 mRNA = test: qPCR of interferon-stimulated genes in B16F10 tumors; settings: tumors at day 16; cGAMP-MPs single injection, cGAMP-S three injections
Description: (§1) Mice bearing B16F10 tumors were treated with the following 4 experimental groups (n=8): untreated, 1×EPs, 3×cGAMP-S, and 1×cGAMP-S plus cGAMP-MPs, respectively (FIG. 4A). Tumors were collected at day 16 post tumor inoculation and cut into 50-100 mg small pieces in a 1.5 mL microcentrifuge tube. The tumors were lysed in radioimmunoprecipitation assay (RIPA) buffer (Sigma-Aldrich), homogenized, and centrifuged at 20130 rcf for 10 min. The protein content in the supernatant was quantified using a bicinchoninic acid protein assay kit (Thermo Fisher Scientific, MA, USA). Equal amounts of proteins (20 μg) were separated on a 4 to 15% gradient SDS-polyacrylamide gel (Bio-Rad, Hercules, CA) and electro-transferred to nitrocellulose membrane. The membranes were then blocked with 5% milk in tris-buffered saline supplemented with 0.05% Tween 20 and further incubated with GAPDH monoclonal antibody (Invitrogen, CA, cat. no. MA5-27912), phospho-TBK1/NAK (Ser172) (D52C2) Rabbit mAb (Cell Signaling Technology, cat. no. 5483S), or phospho-IRF-3 (S396) Rabbit mAb (Cell Signaling Technology, cat. no. 4947S) at 4° C. overnight. […]
(§2) For q-PCR experiments, total RNAs were extracted from tumors by RNeasy Kit (Qiagen, Inc.) according to manufacturer's protocol. […] Samples were analyzed in triplicates.

CXCL10 mRNA = test: as above; settings: tumors at day 16; cGAMP-MPs single injection, cGAMP-S three injections
Description: as §1, §2

Nc1nc2c(ncn2[C@@H]2O[C@@H]3COP(=O)(O)O[C@H]4[C@@H](O)[C@H](n5cnc6c(N)ncnc65)O[C@@H]4COP(=O)(O)O[C@H]3[C@H]2O)c(=O)[nH]1 [cGAMP-S, 3′3′-cGAMP]
number of metastatic foci on lung surfaces (4T1 lung metastasis; cGAMP-MPs single injection day 7, cGAMP-S days 7, 11, 15): significantly decreased
relative area of tumors in the lungs (4T1 lung metastasis; compared to untreated): reduced
tumor recurrence rate (B16F10 tumor recurrence; cGAMP-MPs single application, cGAMP-S three doses, untreated 100%): 25%
tumor recurrence rate (B16F10 tumor recurrence; single dose of cGAMP-S plus EPs): 87.5%
survival after re-challenge (B16F10 tumor recurrence; tumor-free mice re-challenged with B16F10 cells): prolonged survival time
tumor growth after re-challenge versus naïve mice (B16F10 tumor recurrence; tumor-free mice re-challenged with B16F10 cells at day 60): significantly slower
IRF7 mRNA level, fold over untreated (IRF7 mRNA): 66.5 fold
CXCL10 mRNA level, fold over untreated (CXCL10 mRNA): 7.2 fold
